Measurements reported in ChEMBL document CHEMBL3044802, “Synthesis, in vitro antimicrobial and antioxidant activities of chalcone and flavone derivatives holding allylic substitutions” (Med Chem Res, 2011).
Values after ≈ are worked out from the molar mass of the structure shown.

Legend:
Assay type in all cases: functional
Staphylococcus aureus = experiment: Antimicrobial activity against Staphylococcus aureus after overnight incubation by conventional agar dilution method
Escherichia coli = experiment: Antimicrobial activity against Escherichia coli after overnight incubation by conventional agar-dilution method
[1] = Antioxidant activity assessed as Fe2+ reducing power after 20 min
[2] = tested on: Staphylococcus epidermidis; experiment: Antimicrobial activity against Staphylococcus epidermidis after overnight incubation by conventional agar-dilution method
Kluyveromyces marxianus = experiment: Antimicrobial activity against Kluyveromyces marxianus after overnight incubation by conventional agar-dilution method
[3] = tested on: Radical scavenging activity; experiment: Antioxidant activity assessed as DPPH free radical scavenging activity after 30 min by UV-VIS spectrophotometer analysis

Structure (SMILES) | MIC (Staphylococcus aureus) [µg/mL] | MIC (Escherichia coli) [µg/mL] | IC50 [1] [µM] | MIC [2] [µg/mL] | MIC (Kluyveromyces marxianus) [µg/mL] | IC50 [3] [µM]
C=CCOc1c(/C=C/C(=O)c2cccc(CC=C)c2O)cccc1OC | > 1000 | 512 (≈ 1460 µM) | 1.87 | > 1000 | 512 (≈ 1460 µM) | 163
OC(Cn1cncn1)(Cn1cncn1)c1ccc(F)cc1F [FLUCONAZOLE] | – | – | – | – | 4 (≈ 13.1 µM) | –
C=CCOc1ccc(/C=C/C(=O)c2cccc(CC=C)c2O)cc1OC | > 1000 | 512 (≈ 1460 µM) | 2.96 | > 1000 | 512 (≈ 1460 µM) | 85
Cc1cc(NS(=O)(=O)c2ccc(N)cc2)no1 [SULFAMETHOXAZOLE] | 4 (≈ 15.8 µM) | 4 (≈ 15.8 µM) | – | 4 (≈ 15.8 µM) | – | –
Cc1c(C)c2c(c(C)c1O)CCC(C)(C(=O)O)O2 (stereo not given) [TROLOX] | – | – | 41.9 | – | – | 36
C=CCOc1ccc(-c2cc(=O)c3cccc(CC=C)c3o2)cc1OC | > 1000 | > 512 | 0.57 | > 1000 | > 512 | 270
C=CCOc1c(OC)cccc1-c1cc(=O)c2cccc(CC=C)c2o1 | > 1000 | > 512 | 1.11 | > 1000 | 512 (≈ 1470 µM) | 320
